As usually defined, the viability is a read-out of living cells in per cent, often relative to untreated cells.

The text below walks through data of article PMC12040169 (PLOS Biology, 2025).

Structures are written as SMILES.

One data set is described as follows: in vitro. As to conditions: human, hela cells, % viability.
Turning to `CCS(=O)(=O)c1ccc(O)c(NS(=O)(=O)c2cc(C(=O)O)ccc2Cl)c1` [CBK297531], the viability at 28.5 h, 10 µM came out at 91.1%.

Turning to `Cn1c(-c2ccccc2)cnc1NC(=O)C1CN(S(=O)(=O)c2ccc(F)cc2)C1` [CBK285945], the viability at 28.5 h, 10 µM worked out at 98.4%. As for `Cc1ccc(OC(=O)c2cc(Cl)cnc2Cl)cc1` [CBK090321], the viability at 28.5 h, 10 µM turned out to be 84.5%. On the same count and under the same terms, to `C/C(=N\c1ccccc1C(F)(F)F)c1ccncc1` [CBK021262] belongs 86.6%; to `COCc1nc2n(n1)CC(NC1CCCCc3ccccc31)CC2` (stereo not shown) [CBK304445], 89.4%.

On to `Cc1nn(C)cc1C(C)NC(=O)c1ccc2c(c1)ncn2C` (stereo not shown) [CBK281732], for which the viability at 28.5 h, 10 µM was 103%. With `COc1ccc(/C=C/c2nc(C#N)c(NCc3cccnc3)o2)cc1OC` [CBK269240], the viability at 28.5 h, 10 µM amounted to 91.3%. Still for that read-out and setting: for `COc1ccc(CCNc2nc3c(c(=O)n(C)c(=O)n3C)n2Cc2ccccc2Br)cc1OC` [CBK267495] the value was 96.7%.

Regarding `c1cn2cnnc2c(N2CCOC(c3ccsc3)C2)n1` (stereo not shown) [CBK306379], the viability at 28.5 h, 10 µM came out at 88.8%. Same read-out and setting: for `OC1(c2ccccc2)CCN(Cc2ccccc2-n2cccn2)C1` (stereo not shown) [CBK282795] the value was 96.5%; for `COc1ccc(CCOc2nccnc2-c2ccsc2)cc1` [CBK106775], 72%; for `CC(Oc1cccc(Cl)c1)C(=O)Nc1ncccn1` (stereo not shown) [CBK265450], 90.2%. Same read-out and setting: to `O=C(O)CCN1CCCCC1` [CBK012168C] belongs 103%. The same measure, in the same setting: to `CC(C)Nc1cncc(Sc2cccc(N)c2)n1` [CBK091434] belongs 108%; to `O=C(NCCNc1c(Cl)cccc1[N+](=O)[O-])c1cccc(Br)c1` [CBK263940], 91.4%. In the case of `CCOC(=O)C1CCCN(Cc2nc3cc(Cl)ccc3c(=O)[nH]2)C1` (stereo not shown) [CBK306198], the viability at 28.5 h, 10 µM amounted to 86.9%. The same measure, in the same setting: for `CN(C)CCN1C(=O)C(O)=C(C(=O)c2ccc(S(=O)(=O)N3CCOCC3)cc2)C1c1ccc(F)cc1` (stereo not shown) [CBK264683] the value was 104%; for `CCn1c(CC2CCN(C(=O)c3ccc(C)c(C)c3)CC2)nn(C)c1=O` [CBK307133], 87.8%. The same measure, in the same setting: to `O=C(CCn1c(=O)oc2ccccc21)Nc1ccc(S(=O)(=O)N2CCCCC2)cc1` [CBK268365] belongs 82%; to `CC(NC(=O)COc1ccc(Br)cc1)C(=O)O` (stereo not shown) [CBK262083], 87.4%; to `Cc1nnc(SCc2cc(=O)[nH]c(Nc3nc(C)c4cccc(C)c4n3)n2)s1` [CBK266740], 92.9%.

Take `Cc1nn(CC(=O)N2CCCCCC2)c(=O)c2cc3sccc3n12` [CBK284084]: the viability at 28.5 h, 10 µM was found to be 80.4%. Consider `C=CCNC(=S)Nc1sc2c(c1C(=O)OCC)CC(C)CC2` (stereo not shown) [CBK268778], for which the viability at 28.5 h, 10 µM is 89.8%.

Take `CCCOc1ccc(S(=O)(=O)NCc2ccncc2)c2ccccc12` [CBK268780]: the viability at 28.5 h, 10 µM was 83.3%. Consider `CN1CC(C(=O)N2C3CCC2CC(c2ccc(F)cc2)C3)CC1=O` (stereo not shown) [CBK283769], for which the viability at 28.5 h, 10 µM is 96.3%. Same read-out and setting: to `O=C(O)CCCc1ccc2sc3ccccc3c2c1` [CBK010971] belongs 84.8%; to `O=C1N[C@@H](CC2CCCCC2)C(=O)N2CCN(C(=O)c3cccc(F)c3)C[C@H]12` [CBK289599], 115%; to `COc1cc(C=c2sc(=CC(=O)C(C)(C)C)[nH]c2=O)ccc1OCC(=O)O` [CBK296948], 104%. With `CCC1(CC)C(=O)N=C(C(C)(C)C)NC1=O` [CBK076759], the viability at 28.5 h, 10 µM was 88.8%.

For the molecule `O=C(NC(Cc1cccs1)c1nccs1)c1ccncc1` (stereo not shown) [CBK285134], the viability at 28.5 h, 10 µM was found to be 93.9%. Same read-out and setting: for `O=C1CSC2(C(=O)N(Cc3ccccc3)c3ccccc32)N1c1ccccc1` (stereo not shown) [CBK092391] the value was 100%; for `CC1=NN(c2ccc(S(N)(=O)=O)cc2)C(=O)/C1=C/c1ccc(-c2ccc3c(c2)COC3=O)o1` [CBK264678], 95.6%; for `CCn1c(=O)n(CC(=O)NCCc2ccccc2)c2cccnc21` [CBK283812], 76.1%.

Consider `O=C(O)CCNc1cc2ccccc2cc1C(=O)O` [CBK286640], for which the viability at 28.5 h, 10 µM is 80.7%. The same measure, in the same setting: to `CCOC(=O)CCCCNC(O)C(Cl)(Cl)Cl` (stereo not shown) [CBK261003C] belongs 106%; to `CS(=O)(=O)N1CCCC(C(=O)Nc2ccc(S(N)(=O)=O)cc2)C1` (stereo not shown) [CBK268490], 83%; to `Cc1cc(O)cc(=O)n1Cc1cccnc1` [CBK291123], 112%.

For the molecule `COc1cc(N)c(Cl)cc1C(=O)OCc1cc2ccc(C)cc2nc1Cl` [CBK296755], the viability at 28.5 h, 10 µM came to 89.7%. As for `COc1cnc(-c2ccc(Cl)cc2Cl)c(NC(=O)Cc2ccccc2)n1` [CBK145398], the viability at 28.5 h, 10 µM was 92.8%. With `CC(C)C[C@@H]1NC(=O)C2(C/C=C/C[C@@H]3COCC[C@@H]3NC1=O)CCN(C(=O)[C@H](CO)NC(=O)OCc1ccccc1)CC2` [CBK292191], the viability at 28.5 h, 10 µM turned out to be 102%.

As to `O=C(CSc1nnc(SCc2cccc3ccccc23)s1)Nc1ccc(F)c(Cl)c1` [CBK267574], the viability at 28.5 h, 10 µM is 92.1%. Same read-out and setting: to `Cc1cccc(-c2noc([C@@H]3C[C@@H](O)CN3Cc3ccccn3)n2)c1` [CBK288837] belongs 98.2%; to `COc1ccc(-c2cc(C(=O)N/N=C/c3c(C)[nH]c4ccccc34)[nH]n2)cc1` [CBK262884], 55.7%; to `Cc1cccc(NC(=O)c2n[nH]c3ccccc23)c1` [CBK288231], 84.6%.

As for `Cc1ccc(CN(C2CCN(C)CC2)S(=O)(=O)c2ccc(F)cc2F)cc1` [CBK160448T], the viability at 28.5 h, 10 µM is 97.5%. Still for that read-out and setting: to `O=C(O)CCC(C(=O)O)N1C(=O)/C(=C\C(Cl)=C/c2ccc([N+](=O)[O-])cc2)SC1=S` (stereo not shown) [CBK261011] belongs 92.1%. Still for that read-out and setting: for `O=S1(=O)N=c2cc3c(c4cccc1c24)=Nc1ccccc1N3` [CBK020253] the value was 89.9%; for `CC(=O)Nc1ccc(S(=O)(=O)N2CCN(c3ccc([N+](=O)[O-])c(N4CCOCC4)c3)CC2)cc1` [CBK264764], 109%; for `O=c1[nH]c(=O)c2cc(S(=O)(=O)N3CCc4[nH]c5ccccc5c4C3)ccc2[nH]1` [CBK285949], 96.7%. Regarding `O=C(O)CCCC(=O)OCc1ccco1` [CBK260933], the viability at 28.5 h, 10 µM is 98.1%. The same measure, in the same setting: for `O=C(C1CC2C=CC1C21CC1)N1CCC(Oc2cccc(F)c2)CC1` (stereo not shown) [CBK281525] the value was 85.4%. On the same count and under the same terms, to `Nc1nc(-c2ccc(Cl)cc2)c(CC(=O)O)s1` [CBK287188] belongs 80%; to `NC(=O)c1ccccc1NC(=O)COc1ccccc1` [CBK262599], 85.1%; to `CCCCC12CN3CC(C)(CN(C1)C31C(=O)Nc3ccc(Br)cc31)C2=O` (stereo not shown) [CBK267348], 96%. The same measure, in the same setting: for `Nc1ncc(-c2ccc(C(F)(F)F)cc2)c(C2CCCN(C(=O)C3CCCCC3)C2)n1` (stereo not shown) [CBK285791] the value was 98.9%; for `O=S1(=O)N=C(c2cccs2)C=C(C(F)(F)F)N1` [CBK019309], 106%. For `C(=C\c1ccccc1)/CSc1nnc(CSc2nc3ccccc3s2)n1-c1ccccc1` [CBK264467], the viability at 28.5 h, 10 µM came to 101%. On the same count and under the same terms, for `Nc1nonc1-n1nnc(CN2CCCCC2)c1CN1CCCCC1` [CBK270636] the value was 82.3%; for `O=C(CC1S/C(=N/N=C/c2ccc(-c3cc([N+](=O)[O-])ccc3Cl)o2)NC1=O)Nc1ccccc1` (stereo not shown) [CBK264592], 95.3%; for `COC(=O)c1c(NC(=S)NNC(=O)c2nn(C)cc2I)sc2c1CCC2` [CBK267074], 97.7%. On the same count and under the same terms, to `O=C1CC(C(=O)Nc2c(Cl)cccc2Cl)C2(CCCCC2)O1` (stereo not shown) [CBK058445] belongs 95.9%. On the same count and under the same terms, to `Cc1cc2c(SCc3cc(O)[nH]n3)ncnc2s1` [CBK269799] belongs 93.9%; to `O=c1c(-c2ccccc2)c(O)cc(-c2ccccc2)n1Cc1ccccc1` [CBK291188], 115%. Take `COc1ccc(C2=NN(C(=O)CCCC(=O)O)C(c3ccc4nccnc4c3)C2)cc1OC` (stereo not shown) [CBK297785]: the viability at 28.5 h, 10 µM stood at 84.2%. Still for that read-out and setting: to `Cc1cccc(OCC(=O)Nc2ncccc2OCCCC#N)c1` [CBK305918] belongs 90.5%. On the same count and under the same terms, for `COc1ccc(C(NC(=O)CC2CCN(c3nc(C)cc(C)n3)CC2)C2CC2)cc1` (stereo not shown) [CBK285994] the value was 93.4%. For the molecule `Cn1cc(C(=O)N2CCc3nc(-c4cccc(F)c4)sc3C2)cn1` [CBK281910], the viability at 28.5 h, 10 µM turned out to be 94.5%. For `Cn1c(CCN2CCOCC2)nc2cc(NC(=O)c3cccs3)ccc21` [CBK268415], the viability at 28.5 h, 10 µM was 97.9%.

On to `CC(=O)N1C[C@@H](c2cccc(C)c2)[C@@H]2CN(Cc3cccnc3)CC[C@@H]21` [CBK283368], for which the viability at 28.5 h, 10 µM worked out at 89.7%. Still for that read-out and setting: to `COc1cccc(-c2cncc(C3CCCN(Cc4ccc5[nH]ccc5c4)C3)n2)c1` (stereo not shown) [CBK286151] belongs 84.7%; to `COc1ccc(-c2nc3c(n2O)CCc2c-3no[n+]2[O-])cc1OC` [CBK262350], 80.3%; to `O=C(O)CCCC(=O)Nc1ccc([N+](=O)[O-])cc1O` [CBK267384], 102%. On the same count and under the same terms, for `Cc1c(C(=O)N2CCNC(=O)C2C(C)C)cnn1-c1ccc(Br)cc1` (stereo not shown) [CBK306472] the value was 91.5%. Same read-out and setting: to `COc1cccc(CS(=O)(=O)c2c(Br)sc3ccnc(N4CCNCC4)c23)c1` [CBK038956C] belongs 95.1%; to `CN1CCN(c2nccnc2-c2cccc(F)c2)CC1` [CBK036876], 89.8%. Turning to `CC(C)Nc1cccnc1N1CCN(C(=O)c2ccncc2)CC1` [CBK016714], the viability at 28.5 h, 10 µM was found to be 79%. Still for that read-out and setting: for `Cc1cc(COC(=O)Nc2cccnc2)cc(C)n1` [CBK138236] the value was 83.6%. The same measure, in the same setting: to `COc1ccc(S(=O)(=O)NCC(=O)O)cc1OC` [CBK034454] belongs 96.2%.

The data set is the same for the next values; noted with them: human, hela cells, % viability, bulk resorufin, single well.
As for `Cc1cccc(N2C(=O)NC(=O)C(CCc3ccncc3)(CCc3ccncc3)C2=O)c1` [CBK264898], the viability at 28.5 h, 10 µM amounted to 96.3%.
